PubChem BioAssay AID2060892 (Molecular Pharmacology Branch, DTP, NCI, 2025)

Test system: HOP-62 complex spheroids with HUVEC/MSC, viability
Experiment: Anticancer human tumor HOP-62 cell line growth inhibition [RAS];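 further: spheroids exposed to agents for seven days before readout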;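 on viability, T/C: 100% = DMSO vehicle control viability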
Conditions: for IC50: curve of first compound; for viability, T/C: stronger effect = lower value; active means viability on the fitted dose curve at most 10% of control; inactive means the rest
Outline: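 Agents were tested in combination matrices in half-log decrements from a top concentration at or near clinical Cmax (10 microM if undetermined). Targets were multi-cell spheroids of tumour lines plus HUVEC and MSC stromal cells.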

[1] = second compound 0.000949 µM, first compound 0.0316 µM
[2] = second compound 0.000949 µM, first compound 0.1 µM
[3] = second compound 0.000949 µM, first compound 0.316 µM
[4] = second compound 0.000949 µM, first compound 1 µM
[5] = second compound 0.000949 µM, first compound 3.16 µM
[6] = second compound 0.000949 µM, first compound 10 µM
[7] = second compound 0.003 µM, first compound 0.0316 µM
[8] = second compound 0.003 µM, first compound 0.1 µM
[9] = second compound 0.003 µM, first compound 0.316 µM
[10] = second compound 0.003 µM, first compound 1 µM
[11] = second compound 0.003 µM, first compound 3.16 µM
[12] = second compound 0.003 µM, first compound 10 µM
[13] = second compound 0.00949 µM, first compound 0.0316 µM
[14] = second compound 0.00949 µM, first compound 0.1 µM
[15] = second compound 0.00949 µM, first compound 0.316 µM
[16] = second compound 0.00949 µM, first compound 1 µM
[17] = second compound 0.00949 µM, first compound 3.16 µM
[18] = second compound 0.00949 µM, first compound 10 µM
[19] = second compound 0.03 µM, first compound 0.0316 µM
[20] = second compound 0.03 µM, first compound 0.1 µM
[21] = second compound 0.03 µM, first compound 0.316 µM
[22] = second compound 0.03 µM, first compound 1 µM
[23] = second compound 0.03 µM, first compound 3.16 µM
[24] = second compound 0.03 µM, first compound 10 µM
[25] = second compound 0.0949 µM, first compound 0.0316 µM
[26] = second compound 0.0949 µM, first compound 0.1 µM
[27] = second compound 0.0949 µM, first compound 0.316 µM
[28] = second compound 0.0949 µM, first compound 1 µM
[29] = second compound 0.0949 µM, first compound 3.16 µM
[30] = second compound 0.0949 µM, first compound 10 µM
[31] = second compound 0.3 µM, first compound 0.0316 µM
[32] = second compound 0.3 µM, first compound 0.1 µM
[33] = second compound 0.3 µM, first compound 0.316 µM
[34] = second compound 0.3 µM, first compound 1 µM
[35] = second compound 0.3 µM, first compound 3.16 µM
[36] = second compound 0.3 µM, first compound 10 µM

Cc1nc(N2CCC3(CC2)COC(C)C3N)c(CO)nc1Sc1ccnc(N)c1Cl (stereo unspecified) + CCn1c(-c2cccnc2C(C)OC)c2c3cc(ccc31)N1CCOC(CC(NC(=O)C(C(C)C)N(C)C(=O)C3(F)CCN(C(=O)C#CC(C)(C)N(C)C)CC3)C(=O)N3CCCC(N3)C(=O)OCC(C)(C)C2)C1
738 nM: IC50 (second compound 0.00949 µM)
541 nM: IC50 (second compound 0.003 µM)
inactive: viability, T/C [1] 120% | viability, T/C [2] 101% | viability, T/C [3] 60.3% | viability, T/C [4] 65.7% | viability, T/C [5] 63.3% | viability, T/C [6] 31.3% | viability, T/C [7] 107% | viability, T/C [8] 80.1% | viability, T/C [9] 42.9% | viability, T/C [10] 55.6% | viability, T/C [11] 35.3% | viability, T/C [12] 18.3% | viability, T/C [13] 80.7% | viability, T/C [14] 59.4% | viability, T/C [15] 83.1% | viability, T/C [16] 41.3% | viability, T/C [17] 23.9% | viability, T/C [18] 22.4% | viability, T/C [19] 77.8% | viability, T/C [20] 70.5% | viability, T/C [21] 58.5% | viability, T/C [22] 34.9% | viability, T/C [23] 20.1% | viability, T/C [24] 20.9% | viability, T/C [25] 81.4% | viability, T/C [26] 64.2% | viability, T/C [27] 51.5% | viability, T/C [28] 35.5% | viability, T/C [29] 19.8% | viability, T/C [30] 23% | viability, T/C [31] 84.8% | viability, T/C [32] 66.1% | viability, T/C [33] 41.6% | viability, T/C [34] 26.5% | viability, T/C [35] 20.3% | viability, T/C [36] 19.4%
465 nM: IC50 (second compound 0.03 µM)
213 nM: IC50 (second compound 0.3 µM)
2920 nM: IC50 (second compound 0.000949 µM)
302 nM: IC50 (second compound 0.0949 µM)

NC1c2ccccc2OC12CCN(c1cnc3c(N4CCCc5ncccc54)n[nH]c3n1)CC2 (stereo unspecified) + CCn1c(-c2cccnc2C(C)OC)c2c3cc(ccc31)N1CCOC(CC(NC(=O)C(C(C)C)N(C)C(=O)C3(F)CCN(C(=O)C#CC(C)(C)N(C)C)CC3)C(=O)N3CCCC(N3)C(=O)OCC(C)(C)C2)C1
inactive: viability, T/C [1] 91.2% | viability, T/C [2] 70.6% | viability, T/C [3] 27.8% | viability, T/C [4] 44.5% | viability, T/C [5] 33.4% | viability, T/C [6] 19.4% | viability, T/C [7] 69.4% | viability, T/C [8] 48.5% | viability, T/C [9] 60.5% | viability, T/C [10] 23.9% | viability, T/C [11] 19.3% | viability, T/C [12] 9.81% | viability, T/C [13] 60% | viability, T/C [14] 35.3% | viability, T/C [15] 29.6% | viability, T/C [16] 22.7% | viability, T/C [17] 14.8% | viability, T/C [18] 13.2% | viability, T/C [19] 64.1% | viability, T/C [20] 42.1% | viability, T/C [21] 24% | viability, T/C [22] 28.3% | viability, T/C [23] 12% | viability, T/C [24] 14.6% | viability, T/C [25] 53.3% | viability, T/C [26] 35.5% | viability, T/C [27] 20.7% | viability, T/C [28] 16.8% | viability, T/C [29] 11.5% | viability, T/C [30] 14.7% | viability, T/C [31] 44.4% | viability, T/C [32] 28.6% | viability, T/C [33] 18.4% | viability, T/C [34] 15.6% | viability, T/C [35] 13.5% | viability, T/C [36] 15.2%
52.7 nM: IC50 (second compound 0.00949 µM)
183 nM: IC50 (second compound 0.000949 µM)
64.6 nM: IC50 (second compound 0.03 µM)
429 nM: IC50 (second compound 0.003 µM)
39.1 nM: IC50 (second compound 0.0949 µM)
< 31.6 nM: IC50 (second compound 0.3 µM)

Nc1ccn(C2OC(CO)C(O)C2(F)F)c(=O)n1 (stereo unspecified) + CCn1c(-c2cccnc2C(C)OC)c2c3cc(ccc31)N1CCOC(CC(NC(=O)C(C(C)C)N(C)C(=O)C3(F)CCN(C(=O)C#CC(C)(C)N(C)C)CC3)C(=O)N3CCCC(N3)C(=O)OCC(C)(C)C2)C1
10.6 nM: IC50 (second compound 0.03 µM)
8.77 nM: IC50 (second compound 0.3 µM)
9.19 nM: IC50 (second compound 0.003 µM)
8.18 nM: IC50 (second compound 0.00949 µM)
9.58 nM: IC50 (second compound 0.0949 µM)
active: viability, T/C [1] 9.65% | viability, T/C [2] 7.4% | viability, T/C [3] 7.76% | viability, T/C [4] 5.24% | viability, T/C [8] 7.14% | viability, T/C [9] 8.39% | viability, T/C [10] 5.94% | viability, T/C [15] 10.9% | viability, T/C [16] 5.88% | viability, T/C [20] 8.44% | viability, T/C [21] 4.99% | viability, T/C [22] 7.65% | viability, T/C [26] 8.95% | viability, T/C [27] 5.53% | viability, T/C [28] 6.69% | viability, T/C [33] 8.97% | viability, T/C [34] 8.38%
inactive: viability, T/C (second compound 0.000949 µM, first compound 0.00316 µM) 111% | viability, T/C (second compound 0.000949 µM, first compound 0.01 µM) 66.9% | viability, T/C (second compound 0.003 µM, first compound 0.00316 µM) 104% | viability, T/C (second compound 0.003 µM, first compound 0.01 µM) 45.6% | viability, T/C [7] 18.4% | viability, T/C (second compound 0.00949 µM, first compound 0.00316 µM) 87.8% | viability, T/C (second compound 0.00949 µM, first compound 0.01 µM) 41% | viability, T/C [13] 22.8% | viability, T/C [14] 10.3% | viability, T/C (second compound 0.03 µM, first compound 0.00316 µM) 90% | viability, T/C (second compound 0.03 µM, first compound 0.01 µM) 51.2% | viability, T/C [19] 22.7% | viability, T/C (second compound 0.0949 µM, first compound 0.00316 µM) 83.9% | viability, T/C (second compound 0.0949 µM, first compound 0.01 µM) 48.5% | viability, T/C [25] 21.7% | viability, T/C (second compound 0.3 µM, first compound 0.00316 µM) 77.8% | viability, T/C (second compound 0.3 µM, first compound 0.01 µM) 45.9% | viability, T/C [31] 22.9% | viability, T/C [32] 8.24%
14 nM: IC50 (second compound 0.000949 µM)
